Reference: the supplement of paper PMC10307832

What was measured:
Assay in all cases: relative viability (nuclei count vs DMSO), 5 days (fraction); higher = more cells survive
[1] = compound: CCN1C(=O)C2=CC(=C(N=C2N(C1=O)C3CC3)N)C(=O)N + CC(=O)c1c(C)c2cnc(Nc3ccc(N4CCNCC4)cn3)nc2n(C2CCCC2)c1=O [Palbociclib] (partner 0.5 µM)
Method in brief: (§1)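 Relative viability divides the nuclei count in treated wells by that in vehicle wells. Lung cancer cell lines were seeded in 1536-well plates, dosed by pin tool the next day, and fixed and stained after 5 days in one step with final 0.05% Triton X-100, 1% formaldehyde and 1 ug/ml Hoechst. Dosing was a single drug or a fixed anchor-drug dose plus five library-drug doses (not always all listed) in √10 steps, and values are medians of duplicate plates imaged at 4×.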

[2] = compound: CCN1C(=O)C2=CC(=C(N=C2N(C1=O)C3CC3)N)C(=O)N + Cc1cc(Nc2cc(N3CCN(C)CC3)nc(Sc3ccc(NC(=O)C4CC4)cc3)n2)n[nH]1 [Tozasertib] (partner 0.1 µM)
Method in brief: as §1

[3] = compound: CCN1C(=O)C2=CC(=C(N=C2N(C1=O)C3CC3)N)C(=O)N + NC(=O)Nc1cc(-c2cccc(F)c2)sc1C(=O)N[C@H]1CCCNC1 [AZD7762] (partner 0.2 µM)
Method in brief: as §1

[4] = compound: CCN1C(=O)C2=CC(=C(N=C2N(C1=O)C3CC3)N)C(=O)N + Cc1nc(Nc2ncc(C(=O)Nc3c(C)cccc3Cl)s2)cc(N2CCN(CCO)CC2)n1 [Dasatinib] (partner 0.075 µM)
Method in brief: as §1

[5] = compound: CCN1C(=O)C2=CC(=C(N=C2N(C1=O)C3CC3)N)C(=O)N + CC(=O)Nc1cccc(-n2c(=O)n(C3CC3)c(=O)c3c(Nc4ccc(I)cc4F)n(C)c(=O)c(C)c32)c1 [Trametinib] (partner 0.02 µM)
Method in brief: as §1

HCC-366
relative viability ([1]; first compound 0.253 µM): 0.334 | relative viability ([1]; first compound 0.8 µM): 0.403 | relative viability ([1]; first compound 2.53 µM): 0.378 | relative viability ([1]; first compound 8 µM): 0.417 | relative viability ([2]; first compound 0.8 µM): 0.0821 | relative viability ([2]; first compound 2.53 µM): 0.0697 | relative viability ([2]; first compound 8 µM): 0.0668 | relative viability ([3]; first compound 0.253 µM): 0.395 | relative viability ([3]; first compound 0.8 µM): 0.312 | relative viability ([3]; first compound 2.53 µM): 0.41 | relative viability ([3]; first compound 8 µM): 0.231 | relative viability ([4]; first compound 0.8 µM): 0.656 | relative viability ([4]; first compound 2.53 µM): 0.518 | relative viability ([4]; first compound 8 µM): 0.611 | relative viability ([5]; first compound 0.253 µM): 0.416 | relative viability ([5]; first compound 0.8 µM): 0.433 | relative viability ([5]; first compound 2.53 µM): 0.348 | relative viability ([5]; first compound 8 µM): 0.343

NCI-H2347
relative viability ([1]; first compound 0.253 µM): 0.458 | relative viability ([1]; first compound 0.8 µM): 0.489 | relative viability ([1]; first compound 2.53 µM): 0.445 | relative viability ([1]; first compound 8 µM): 0.492 | relative viability ([2]; first compound 0.253 µM): 0.666 | relative viability ([2]; first compound 0.8 µM): 0.61 | relative viability ([2]; first compound 2.53 µM): 0.572 | relative viability ([2]; first compound 8 µM): 0.482 | relative viability ([3]; first compound 0.253 µM): 0.769 | relative viability ([3]; first compound 0.8 µM): 0.785 | relative viability ([3]; first compound 2.53 µM): 0.695 | relative viability ([3]; first compound 8 µM): 0.817 | relative viability ([4]; first compound 0.253 µM): 0.294 | relative viability ([4]; first compound 0.8 µM): 0.307 | relative viability ([4]; first compound 2.53 µM): 0.161 | relative viability ([4]; first compound 8 µM): 0.323 | relative viability ([5]; first compound 0.253 µM): 0.183 | relative viability ([5]; first compound 0.8 µM): 0.299 | relative viability ([5]; first compound 2.53 µM): 0.307 | relative viability ([5]; first compound 8 µM): 0.307

LXF-289
relative viability ([1]; first compound 0.253 µM): 0.616 | relative viability ([1]; first compound 0.8 µM): 0.581 | relative viability ([1]; first compound 2.53 µM): 0.657 | relative viability ([1]; first compound 8 µM): 0.588 | relative viability ([2]; first compound 0.253 µM): 0.127 | relative viability ([2]; first compound 0.8 µM): 0.26 | relative viability ([2]; first compound 2.53 µM): 0.206 | relative viability ([2]; first compound 8 µM): 0.201 | relative viability ([3]; first compound 0.253 µM): 1.12 | relative viability ([3]; first compound 0.8 µM): 1.17 | relative viability ([3]; first compound 2.53 µM): 1.08 | relative viability ([3]; first compound 8 µM): 1.07 | relative viability ([4]; first compound 0.253 µM): 0.229 | relative viability ([4]; first compound 0.8 µM): 0.348 | relative viability ([4]; first compound 2.53 µM): 0.28 | relative viability ([4]; first compound 8 µM): 0.212 | relative viability ([5]; first compound 0.253 µM): 0.636 | relative viability ([5]; first compound 0.8 µM): 0.658 | relative viability ([5]; first compound 2.53 µM): 0.661 | relative viability ([5]; first compound 8 µM): 0.665

BEN
relative viability ([1]; first compound 0.253 µM): 0.448 | relative viability ([1]; first compound 0.8 µM): 0.478 | relative viability ([1]; first compound 2.53 µM): 0.411 | relative viability ([1]; first compound 8 µM): 0.456 | relative viability ([2]; first compound 0.253 µM): 0.629 | relative viability ([2]; first compound 0.8 µM): 0.528 | relative viability ([2]; first compound 2.53 µM): 0.443 | relative viability ([2]; first compound 8 µM): 0.525 | relative viability ([3]; first compound 0.253 µM): 0.789 | relative viability ([3]; first compound 0.8 µM): 0.568 | relative viability ([3]; first compound 2.53 µM): 0.864 | relative viability ([3]; first compound 8 µM): 0.689 | relative viability ([4]; first compound 0.253 µM): 0.368 | relative viability ([4]; first compound 0.8 µM): 0.267 | relative viability ([4]; first compound 2.53 µM): 0.313 | relative viability ([4]; first compound 8 µM): 0.356 | relative viability ([5]; first compound 0.253 µM): 0.915 | relative viability ([5]; first compound 0.8 µM): 0.937 | relative viability ([5]; first compound 2.53 µM): 1.11 | relative viability ([5]; first compound 8 µM): 1.05

NCI-H727
relative viability ([1]; first compound 0.253 µM): 0.642 | relative viability ([1]; first compound 0.8 µM): 0.616 | relative viability ([1]; first compound 2.53 µM): 0.605 | relative viability ([1]; first compound 8 µM): 0.553 | relative viability ([2]; first compound 0.253 µM): 0.534 | relative viability ([2]; first compound 0.8 µM): 0.71 | relative viability ([2]; first compound 2.53 µM): 0.608 | relative viability ([2]; first compound 8 µM): 0.603 | relative viability ([3]; first compound 0.253 µM): 0.61 | relative viability ([3]; first compound 0.8 µM): 0.534 | relative viability ([3]; first compound 2.53 µM): 0.726 | relative viability ([3]; first compound 8 µM): 0.577 | relative viability ([4]; first compound 0.253 µM): 0.352 | relative viability ([4]; first compound 0.8 µM): 0.323 | relative viability ([4]; first compound 2.53 µM): 0.333 | relative viability ([4]; first compound 8 µM): 0.422 | relative viability ([5]; first compound 0.253 µM): 0.39 | relative viability ([5]; first compound 0.8 µM): 0.436 | relative viability ([5]; first compound 2.53 µM): 0.422 | relative viability ([5]; first compound 8 µM): 0.386

NCI-H1355
relative viability ([1]; first compound 0.253 µM): 0.418 | relative viability ([1]; first compound 0.8 µM): 0.358 | relative viability ([1]; first compound 2.53 µM): 0.396 | relative viability ([1]; first compound 8 µM): 0.395 | relative viability ([2]; first compound 0.253 µM): 0.587 | relative viability ([2]; first compound 0.8 µM): 0.616 | relative viability ([2]; first compound 2.53 µM): 0.509 | relative viability ([2]; first compound 8 µM): 0.515 | relative viability ([3]; first compound 0.253 µM): 0.798 | relative viability ([3]; first compound 0.8 µM): 0.821 | relative viability ([3]; first compound 2.53 µM): 0.756 | relative viability ([3]; first compound 8 µM): 0.691 | relative viability ([4]; first compound 0.253 µM): 0.728 | relative viability ([4]; first compound 0.8 µM): 0.717 | relative viability ([4]; first compound 2.53 µM): 0.701 | relative viability ([4]; first compound 8 µM): 0.725 | relative viability ([5]; first compound 0.253 µM): 0.429 | relative viability ([5]; first compound 0.8 µM): 0.387 | relative viability ([5]; first compound 2.53 µM): 0.383 | relative viability ([5]; first compound 8 µM): 0.438

NCI-H1793
relative viability ([1]; first compound 0.253 µM): 0.258 | relative viability ([1]; first compound 0.8 µM): 0.322 | relative viability ([1]; first compound 2.53 µM): 0.27 | relative viability ([1]; first compound 8 µM): 0.3 | relative viability ([2]; first compound 0.8 µM): 0.375 | relative viability ([2]; first compound 2.53 µM): 0.265 | relative viability ([2]; first compound 8 µM): 0.298 | relative viability ([3]; first compound 0.253 µM): 0.409 | relative viability ([3]; first compound 0.8 µM): 0.408 | relative viability ([3]; first compound 2.53 µM): 0.649 | relative viability ([3]; first compound 8 µM): 0.501 | relative viability ([4]; first compound 0.8 µM): 0.434 | relative viability ([4]; first compound 2.53 µM): 0.32 | relative viability ([4]; first compound 8 µM): 0.419 | relative viability ([5]; first compound 0.253 µM): 0.428 | relative viability ([5]; first compound 0.8 µM): 0.387 | relative viability ([5]; first compound 2.53 µM): 0.433 | relative viability ([5]; first compound 8 µM): 0.445

PC-14
relative viability ([1]; first compound 0.253 µM): 0.555 | relative viability ([1]; first compound 0.8 µM): 0.525 | relative viability ([1]; first compound 2.53 µM): 0.526 | relative viability ([1]; first compound 8 µM): 0.514 | relative viability ([2]; first compound 0.253 µM): 0.597 | relative viability ([2]; first compound 0.8 µM): 0.604 | relative viability ([2]; first compound 2.53 µM): 0.525 | relative viability ([2]; first compound 8 µM): 0.64 | relative viability ([3]; first compound 0.253 µM): 0.397 | relative viability ([3]; first compound 0.8 µM): 0.288 | relative viability ([3]; first compound 2.53 µM): 0.513 | relative viability ([3]; first compound 8 µM): 0.294 | relative viability ([4]; first compound 0.253 µM): 0.244 | relative viability ([4]; first compound 0.8 µM): 0.258 | relative viability ([4]; first compound 2.53 µM): 0.252 | relative viability ([4]; first compound 8 µM): 0.298 | relative viability ([5]; first compound 0.253 µM): 0.743 | relative viability ([5]; first compound 0.8 µM): 0.721 | relative viability ([5]; first compound 2.53 µM): 0.768 | relative viability ([5]; first compound 8 µM): 0.715
